Consider one molecule from US20130089629A1, “KIT FOR THE TREATMENT OF ONYCHOMYCOSIS BY NITRIC OXIDE” (TOPICAL PHARMA AB, priority 2010, published 2013).

This assay concerns skin surrounding the finger nail and the nail itself. Nature of the assay: Acidifying effect of salicylic acid paste in a fingerstall on skin and finger nail. The assay is classed as in vivo. The note with it: paste 2% w/w in fingerstall, about 12 hours, vs empty fingerstall. The procedure: In a study designed to investigate the acidifying effect on the skin surrounding the finger nail as well as the nail itself a paste comprising salicylic acid at 2% w/w was inserted in a fingerstall. The fingerstall was applied over the top of the finger covering it tightly for about 12 hours. A completely empty stall covering another finger served as control for the same time period
Upon scratching the nail surface with a sharp metal edge device, nail fragments (keratinized cells) were easily released in contrast to the nail at the finger covered with an empty fingerstall where the nail plate surface was hard.

For the molecule `O=C(O)c1ccccc1O` [salicylic acid], the “appearance of the skin after exposure” value was “softening and loosening up of the skin”; the “effect on the nail plate surface” value was “loosened up the superficial outer nail plate layer”.
